Data as given in ChEMBL document CHEMBL1152560, “Substituted 2-arylbenzothiazoles as kinase inhibitors: hit-to-lead optimization” (Bioorg Med Chem, 2009).

Columns and labels:
[1] = target: Dual specificity protein kinase CLK1 (Homo sapiens) (UniProt P49759); experiment: Residual activity of CLK1 at 1 uM by microplate scintillation counting
[2] = target: T1, Eukaryotic translation initiation factor 2-alpha kinase 3 (Homo sapiens) (UniProt Q9NZJ5); experiment: Residual activity of EIF2AK3 at 1 uM by microplate scintillation counting
T1 sequence (whole entry): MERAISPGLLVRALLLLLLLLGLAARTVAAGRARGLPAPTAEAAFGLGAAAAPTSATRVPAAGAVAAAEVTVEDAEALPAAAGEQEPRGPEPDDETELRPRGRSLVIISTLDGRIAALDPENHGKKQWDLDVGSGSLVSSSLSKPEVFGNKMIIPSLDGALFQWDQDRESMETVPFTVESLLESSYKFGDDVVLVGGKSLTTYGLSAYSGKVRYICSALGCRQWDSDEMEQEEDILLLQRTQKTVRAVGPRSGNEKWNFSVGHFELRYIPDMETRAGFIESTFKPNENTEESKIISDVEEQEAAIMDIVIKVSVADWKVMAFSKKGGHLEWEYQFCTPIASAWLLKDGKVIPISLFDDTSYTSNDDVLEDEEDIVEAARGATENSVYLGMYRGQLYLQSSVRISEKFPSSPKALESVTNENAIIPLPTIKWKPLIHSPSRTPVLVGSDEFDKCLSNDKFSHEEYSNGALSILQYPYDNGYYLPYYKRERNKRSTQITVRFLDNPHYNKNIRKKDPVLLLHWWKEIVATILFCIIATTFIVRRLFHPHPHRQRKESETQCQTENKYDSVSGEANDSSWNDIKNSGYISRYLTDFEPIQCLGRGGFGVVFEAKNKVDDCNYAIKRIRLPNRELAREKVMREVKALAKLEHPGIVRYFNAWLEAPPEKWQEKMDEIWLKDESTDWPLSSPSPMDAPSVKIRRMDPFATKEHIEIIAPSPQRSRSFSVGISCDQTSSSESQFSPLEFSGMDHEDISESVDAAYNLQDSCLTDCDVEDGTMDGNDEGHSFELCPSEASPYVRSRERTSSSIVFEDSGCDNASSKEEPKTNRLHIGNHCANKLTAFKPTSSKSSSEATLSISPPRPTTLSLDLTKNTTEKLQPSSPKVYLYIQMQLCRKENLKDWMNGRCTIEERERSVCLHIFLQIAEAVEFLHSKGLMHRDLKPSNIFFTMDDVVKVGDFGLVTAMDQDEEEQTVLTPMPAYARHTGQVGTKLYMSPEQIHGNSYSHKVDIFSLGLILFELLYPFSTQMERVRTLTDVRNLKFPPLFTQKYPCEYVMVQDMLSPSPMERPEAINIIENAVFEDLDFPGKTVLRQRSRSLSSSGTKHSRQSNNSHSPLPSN

[3] = target: Mitogen-activated protein kinase kinase kinase 8 (Homo sapiens) (UniProt P41279); experiment: Residual activity of COT at 0.1 uM by microplate scintillation counting
[4] = target: Macrophage colony-stimulating factor 1 receptor (Homo sapiens) (UniProt P07333); experiment: Residual activity of CSF1R at 0.1 uM by microplate scintillation counting
Macrophage colony-stimulating factor 1 receptor (Homo sapiens), sequence (P07333 whole entry): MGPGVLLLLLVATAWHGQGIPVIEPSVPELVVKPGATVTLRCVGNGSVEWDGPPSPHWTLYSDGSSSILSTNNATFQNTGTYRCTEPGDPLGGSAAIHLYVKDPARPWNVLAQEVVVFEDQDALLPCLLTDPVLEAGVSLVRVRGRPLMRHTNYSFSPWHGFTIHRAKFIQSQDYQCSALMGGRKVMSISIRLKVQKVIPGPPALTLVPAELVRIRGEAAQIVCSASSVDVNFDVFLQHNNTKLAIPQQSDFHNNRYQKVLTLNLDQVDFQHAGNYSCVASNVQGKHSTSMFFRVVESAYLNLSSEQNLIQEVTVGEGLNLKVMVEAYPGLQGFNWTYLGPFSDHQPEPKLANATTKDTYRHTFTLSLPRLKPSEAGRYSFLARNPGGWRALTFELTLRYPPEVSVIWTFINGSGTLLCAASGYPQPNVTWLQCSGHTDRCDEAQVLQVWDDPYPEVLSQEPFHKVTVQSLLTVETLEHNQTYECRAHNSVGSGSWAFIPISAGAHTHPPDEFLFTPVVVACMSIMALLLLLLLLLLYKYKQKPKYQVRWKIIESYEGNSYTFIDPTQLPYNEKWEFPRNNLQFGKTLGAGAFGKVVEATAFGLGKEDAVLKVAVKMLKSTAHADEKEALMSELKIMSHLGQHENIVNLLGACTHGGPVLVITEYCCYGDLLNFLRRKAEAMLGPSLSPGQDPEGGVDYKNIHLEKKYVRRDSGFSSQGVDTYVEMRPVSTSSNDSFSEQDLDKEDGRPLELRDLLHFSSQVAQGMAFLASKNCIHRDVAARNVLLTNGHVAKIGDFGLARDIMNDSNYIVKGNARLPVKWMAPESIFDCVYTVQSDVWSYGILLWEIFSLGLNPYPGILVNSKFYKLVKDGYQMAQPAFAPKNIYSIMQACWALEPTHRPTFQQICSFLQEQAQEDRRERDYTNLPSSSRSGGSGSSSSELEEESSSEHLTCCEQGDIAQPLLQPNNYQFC

[5] = target: Fibroblast growth factor receptor 2 (Homo sapiens) (UniProt P21802); experiment: Residual activity of FGFR2 at 0.1 uM by microplate scintillation counting
[6] = target: Mitogen-activated protein kinase 11 (Homo sapiens) (UniProt Q15759); experiment: Residual activity of p38beta at 1 uM by microplate scintillation counting
Mitogen-activated protein kinase 11 (Homo sapiens), sequence (Q15759 whole entry): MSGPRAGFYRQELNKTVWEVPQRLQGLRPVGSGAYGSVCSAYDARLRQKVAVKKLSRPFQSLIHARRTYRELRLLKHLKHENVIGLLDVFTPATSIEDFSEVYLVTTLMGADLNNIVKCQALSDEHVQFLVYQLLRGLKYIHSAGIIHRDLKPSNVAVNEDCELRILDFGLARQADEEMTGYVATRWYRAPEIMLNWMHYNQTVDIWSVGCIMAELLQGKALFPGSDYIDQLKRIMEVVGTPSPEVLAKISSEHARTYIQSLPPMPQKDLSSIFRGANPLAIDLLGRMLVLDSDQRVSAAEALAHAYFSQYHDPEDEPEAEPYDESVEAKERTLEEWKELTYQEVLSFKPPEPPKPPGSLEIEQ

[7] = target: Protein-tyrosine kinase 2-beta (Homo sapiens) (UniProt Q14289); experiment: Residual activity of PYK2 at 1 uM by microplate scintillation counting
Protein-tyrosine kinase 2-beta (Homo sapiens), sequence (Q14289 whole entry, looked up): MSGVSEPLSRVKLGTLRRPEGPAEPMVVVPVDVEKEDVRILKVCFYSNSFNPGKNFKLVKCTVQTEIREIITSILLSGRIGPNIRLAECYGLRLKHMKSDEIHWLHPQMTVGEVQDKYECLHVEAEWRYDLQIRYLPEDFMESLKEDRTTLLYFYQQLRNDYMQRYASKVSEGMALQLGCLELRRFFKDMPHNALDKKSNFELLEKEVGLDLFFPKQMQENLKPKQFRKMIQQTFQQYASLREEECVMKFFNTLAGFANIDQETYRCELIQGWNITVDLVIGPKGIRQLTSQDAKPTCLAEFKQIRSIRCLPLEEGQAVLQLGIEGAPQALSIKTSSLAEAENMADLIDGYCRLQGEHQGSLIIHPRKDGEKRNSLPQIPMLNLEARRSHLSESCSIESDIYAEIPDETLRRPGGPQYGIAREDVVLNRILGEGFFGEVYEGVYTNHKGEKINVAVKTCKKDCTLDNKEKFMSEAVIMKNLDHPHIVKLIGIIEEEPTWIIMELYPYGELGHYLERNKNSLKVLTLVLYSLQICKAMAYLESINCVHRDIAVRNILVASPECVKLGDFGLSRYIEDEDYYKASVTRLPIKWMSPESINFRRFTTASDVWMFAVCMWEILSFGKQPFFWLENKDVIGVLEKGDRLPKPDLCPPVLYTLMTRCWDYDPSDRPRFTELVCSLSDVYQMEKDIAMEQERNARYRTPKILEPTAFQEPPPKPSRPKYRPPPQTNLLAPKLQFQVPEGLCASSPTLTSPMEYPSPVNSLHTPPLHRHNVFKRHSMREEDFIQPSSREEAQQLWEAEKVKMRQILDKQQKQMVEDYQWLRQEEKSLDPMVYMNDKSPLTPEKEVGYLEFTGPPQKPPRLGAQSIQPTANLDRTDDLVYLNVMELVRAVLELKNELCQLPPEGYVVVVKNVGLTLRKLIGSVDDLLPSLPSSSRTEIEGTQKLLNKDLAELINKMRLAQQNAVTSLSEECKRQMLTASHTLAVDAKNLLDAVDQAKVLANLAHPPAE

[8] = target: Ribosomal protein S6 kinase beta-2 (Homo sapiens) (UniProt Q9UBS0); experiment: Residual activity of S6Kbeta at 1 uM by microplate scintillation counting
Ribosomal protein S6 kinase beta-2 (Homo sapiens), sequence (Q9UBS0 whole entry): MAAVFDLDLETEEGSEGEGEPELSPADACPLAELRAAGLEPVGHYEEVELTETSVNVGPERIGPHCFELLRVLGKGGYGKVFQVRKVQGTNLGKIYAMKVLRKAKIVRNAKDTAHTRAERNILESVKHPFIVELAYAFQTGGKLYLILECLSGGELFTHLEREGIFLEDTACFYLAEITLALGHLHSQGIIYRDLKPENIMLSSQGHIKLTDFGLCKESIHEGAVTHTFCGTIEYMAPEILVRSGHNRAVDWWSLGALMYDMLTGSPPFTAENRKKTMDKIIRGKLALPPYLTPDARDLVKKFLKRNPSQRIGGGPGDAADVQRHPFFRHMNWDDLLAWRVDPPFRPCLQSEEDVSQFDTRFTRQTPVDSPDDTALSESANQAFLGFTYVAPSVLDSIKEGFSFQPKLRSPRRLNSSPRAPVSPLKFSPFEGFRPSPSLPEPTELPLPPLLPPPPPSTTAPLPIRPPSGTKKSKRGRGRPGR

[9] = target: T2, Serine/threonine-protein kinase 3 (Homo sapiens) (UniProt Q13188); experiment: Residual activity of MST2 at 0.1 uM by microplate scintillation counting
T2 sequence (whole entry): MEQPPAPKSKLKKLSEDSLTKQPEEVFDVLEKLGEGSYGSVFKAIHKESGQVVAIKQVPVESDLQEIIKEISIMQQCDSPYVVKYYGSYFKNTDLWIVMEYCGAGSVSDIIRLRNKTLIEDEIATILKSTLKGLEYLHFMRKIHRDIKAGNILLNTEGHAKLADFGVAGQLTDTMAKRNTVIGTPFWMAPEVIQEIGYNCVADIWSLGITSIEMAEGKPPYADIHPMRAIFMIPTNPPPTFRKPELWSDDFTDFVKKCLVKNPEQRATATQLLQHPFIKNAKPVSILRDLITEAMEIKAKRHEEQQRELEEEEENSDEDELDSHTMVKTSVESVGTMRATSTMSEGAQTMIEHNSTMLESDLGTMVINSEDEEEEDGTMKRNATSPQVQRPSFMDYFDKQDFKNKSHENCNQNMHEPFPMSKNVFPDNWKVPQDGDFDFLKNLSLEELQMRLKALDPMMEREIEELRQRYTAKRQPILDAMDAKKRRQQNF

[10] = target: Tyrosine-protein kinase Fes/Fps (Homo sapiens) (UniProt P07332); experiment: Residual activity of FES at 10 uM by microplate scintillation counting
[11] = target: 5'-AMP-activated protein kinase catalytic subunit alpha-1 (Homo sapiens) (UniProt Q13131); experiment: Residual activity of AMPK-alpha1 fl at 10 uM by microplate scintillation counting
[12] = target: Eukaryotic translation initiation factor 2-alpha kinase 1 (Homo sapiens) (UniProt Q9BQI3); experiment: Residual activity of HRI at 10 uM by microplate scintillation counting
[13] = target: Interleukin-1 receptor-associated kinase 1 (Homo sapiens) (UniProt P51617); experiment: Residual activity of IRAKI at 10 uM by microplate scintillation counting
Interleukin-1 receptor-associated kinase 1 (Homo sapiens), sequence (P51617 whole entry, looked up): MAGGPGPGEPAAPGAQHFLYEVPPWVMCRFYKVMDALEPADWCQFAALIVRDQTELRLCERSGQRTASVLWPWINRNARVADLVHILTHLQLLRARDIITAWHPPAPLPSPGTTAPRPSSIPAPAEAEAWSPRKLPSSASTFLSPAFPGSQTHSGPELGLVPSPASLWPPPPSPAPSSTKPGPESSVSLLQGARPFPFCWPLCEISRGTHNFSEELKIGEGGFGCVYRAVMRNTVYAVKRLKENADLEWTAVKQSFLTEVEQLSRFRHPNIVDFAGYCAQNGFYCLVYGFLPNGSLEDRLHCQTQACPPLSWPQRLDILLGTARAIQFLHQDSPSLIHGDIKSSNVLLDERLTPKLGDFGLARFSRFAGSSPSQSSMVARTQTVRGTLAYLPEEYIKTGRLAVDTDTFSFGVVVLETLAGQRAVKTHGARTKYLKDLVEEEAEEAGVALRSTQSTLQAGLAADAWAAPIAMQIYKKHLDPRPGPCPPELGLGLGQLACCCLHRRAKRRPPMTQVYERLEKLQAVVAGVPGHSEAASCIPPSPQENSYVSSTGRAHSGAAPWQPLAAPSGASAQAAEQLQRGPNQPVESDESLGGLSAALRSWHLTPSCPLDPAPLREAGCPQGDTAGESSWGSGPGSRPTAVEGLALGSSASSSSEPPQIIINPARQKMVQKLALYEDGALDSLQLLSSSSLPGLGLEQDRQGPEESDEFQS

[14] = target: Tyrosine-protein kinase receptor UFO (Homo sapiens) (UniProt P30530); experiment: Residual activity of AXL at 1 uM by microplate scintillation counting
[15] = test system: Serine/threonine-protein kinase B-raf (Homo sapiens), P15056 [V600E]; experiment: Residual activity of B-RAF V600E mutant at 1 uM by microplate scintillation counting
[16] = target: Maternal embryonic leucine zipper kinase (Homo sapiens) (UniProt Q14680); experiment: Residual activity of MELK at 10 uM by microplate scintillation counting
[17] = target: Serine/threonine-protein kinase PAK 6 (Homo sapiens) (UniProt Q9NQU5); experiment: Residual activity of PAK6 at 10 uM by microplate scintillation counting
[18] = target: Cyclin-dependent kinase 16 (Homo sapiens) (UniProt Q00536); experiment: Residual activity of PCTAIRE1 at 0.1 uM by microplate scintillation counting
[19] = target: Proto-oncogene tyrosine-protein kinase Src (Homo sapiens) (UniProt P12931); experiment: Residual activity of SRC at 10 uM by microplate scintillation counting
[20] = target: Wee1-like protein kinase (Homo sapiens) (UniProt P30291); experiment: Residual activity of WEE1 at 10 uM by microplate scintillation counting
[21] = target: Vascular endothelial growth factor receptor 2 (Homo sapiens, UniProt P35968); experiment: Inhibition of VEGFR2 by microplate scintillation counting
Vascular endothelial growth factor receptor 2, sequence (P35968 whole entry): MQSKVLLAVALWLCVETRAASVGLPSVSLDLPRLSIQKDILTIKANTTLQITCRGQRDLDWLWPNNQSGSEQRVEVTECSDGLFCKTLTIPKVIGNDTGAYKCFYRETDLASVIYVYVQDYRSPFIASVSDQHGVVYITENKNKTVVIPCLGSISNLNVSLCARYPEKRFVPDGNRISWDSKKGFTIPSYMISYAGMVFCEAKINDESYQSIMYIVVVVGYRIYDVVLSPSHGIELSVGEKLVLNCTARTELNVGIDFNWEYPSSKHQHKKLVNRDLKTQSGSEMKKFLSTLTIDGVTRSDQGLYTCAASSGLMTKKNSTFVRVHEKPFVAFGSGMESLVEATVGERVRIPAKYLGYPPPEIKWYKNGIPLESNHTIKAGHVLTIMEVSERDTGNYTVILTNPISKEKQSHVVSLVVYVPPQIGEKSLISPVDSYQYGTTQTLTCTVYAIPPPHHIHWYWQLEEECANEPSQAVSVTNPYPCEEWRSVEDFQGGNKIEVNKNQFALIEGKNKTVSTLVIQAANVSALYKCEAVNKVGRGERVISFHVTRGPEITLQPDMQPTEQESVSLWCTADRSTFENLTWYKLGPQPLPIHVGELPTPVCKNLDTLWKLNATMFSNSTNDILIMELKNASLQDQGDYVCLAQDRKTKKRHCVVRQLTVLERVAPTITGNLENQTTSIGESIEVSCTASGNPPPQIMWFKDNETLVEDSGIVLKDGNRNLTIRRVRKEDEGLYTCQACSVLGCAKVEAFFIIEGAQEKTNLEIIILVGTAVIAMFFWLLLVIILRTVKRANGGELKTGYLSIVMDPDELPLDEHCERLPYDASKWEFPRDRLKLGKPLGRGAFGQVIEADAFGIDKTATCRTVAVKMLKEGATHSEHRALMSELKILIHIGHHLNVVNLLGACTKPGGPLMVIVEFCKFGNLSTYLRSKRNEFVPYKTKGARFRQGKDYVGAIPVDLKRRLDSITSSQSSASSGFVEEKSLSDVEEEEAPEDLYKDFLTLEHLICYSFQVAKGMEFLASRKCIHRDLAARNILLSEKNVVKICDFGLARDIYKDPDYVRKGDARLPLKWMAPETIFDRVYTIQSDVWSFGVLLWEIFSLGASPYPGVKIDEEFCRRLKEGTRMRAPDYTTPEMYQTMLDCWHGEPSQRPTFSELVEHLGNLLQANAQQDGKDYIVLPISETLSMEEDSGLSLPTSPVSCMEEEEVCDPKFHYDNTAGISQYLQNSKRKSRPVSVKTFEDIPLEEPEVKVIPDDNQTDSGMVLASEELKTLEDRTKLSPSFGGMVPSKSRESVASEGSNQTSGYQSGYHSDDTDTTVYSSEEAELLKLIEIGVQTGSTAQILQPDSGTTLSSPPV

Row | residual activity [1] [%] | residual activity [2] [%] | residual activity [3] [%] | residual activity [4] [%] | residual activity [5] [%] | residual activity [6] [%] | residual activity [7] [%] | residual activity [8] [%] | residual activity [9] [%] | residual activity [10] [%] | residual activity [11] [%] | residual activity [12] [%] | residual activity [13] [%] | residual activity [14] [%] | residual activity [15] [%] | residual activity [16] [%] | residual activity [17] [%] | residual activity [18] [%] | residual activity [19] [%] | residual activity [20] [%] | SMILES | other results
1 | 107 | 102 | 73 | 120 | 103 | 125 | 109 | 54 | 82 | 208 | 73 | 112 | 18 | 71 | 83 | 85 | 95 | 83 | 83 | 46 | COc1cc2c(Oc3ccc(-c4nc5ccccc5s4)cc3)ncnc2cc1OCCCN1CCCC1 | IC50 [21]: 350 nM
2 | 104 | 90 | 78 | 88 | 105 | 129 | 105 | 41 | 92 | 112 | 57 | 57 | 18 | 89 | 79 | 77 | 57 | 76 | 45 | 2 | COc1cc2c(Oc3ccc(-c4nc5ccccc5s4)cc3F)ncnc2cc1OCCCN1CCN(C)CC1 | IC50 [21]: 420 nM
3 | 99 | 100 | 101 | 93 | 101 | 126 | 97 | 56 | 90 | 153 | 61 | 127 | 23 | 88 | 86 | 98 | 65 | 78 | 75 | 2 | COc1cc2c(Oc3ccc(-c4nc5ccccc5s4)cc3)ncnc2cc1OCCCN1CCN(C)CC1 | IC50 [21]: 147 nM
